# Source: patent US8415469B2, “Compounds and methods for kinase modulation, and indications therefor” (Plexxikon Inc., priority 2005, dated 2013)
# Legend:
# Format in all cases: biochemical
# B-Raf V600E = molecular target: T1, B-Raf V600E (Homo sapiens, UniProt P15056, V600E); assay: AlphaScreen kinase assay, B-Raf V600E; settings: read-out: IC50, activity toward kinase B-Raf V600E
# T1 construct: P4254. pFastBacBD-CDC37 BRAF D437-K722-X, V600E; His6 with pFastBac HT leader (TEV site) (N); made in house; host or cells: Sf9 (baculovirus; chaperone CDC37 co-expressed)
# FGFR1 = molecular target: T2, FGFR1 (Homo sapiens, UniProt P11362, C488A/C584S); assay: AlphaScreen kinase assay, FGFR1; settings: read-out: IC50, activity toward kinase FGFR
# T2 construct: P1351.pET N6 BI-PTP FGFR A458-E765-X C488A, C584S; made in house; host or cells: E. coli (PTP1B co-expressed)
# Fms = molecular target: T3, Fms (Homo sapiens, UniProt P07333); assay: AlphaScreen kinase assay, Fms; settings: read-out: IC50, activity toward kinase Fms
# T3 construct: purchased Upstate Biotechnology
# Kdr = molecular target: T4, Kdr (Homo sapiens, UniProt P35968); assay: Z'-Lyte FRET kinase assay (Invitrogen), Kdr; settings: read-out: IC50, activity toward kinase Kdr
# T4 construct: purchased Invitrogen (assay run by Invitrogen)
# Stk6 = molecular target: T5, Stk6 (Homo sapiens, UniProt O14965); assay: Z'-Lyte FRET kinase assay (Invitrogen), Stk6; settings: read-out: IC50, activity toward kinase Stk6
# T5 construct: purchased Invitrogen (Carlsbad, Calif.), screening service
# T5 sequence (O14965 1-403): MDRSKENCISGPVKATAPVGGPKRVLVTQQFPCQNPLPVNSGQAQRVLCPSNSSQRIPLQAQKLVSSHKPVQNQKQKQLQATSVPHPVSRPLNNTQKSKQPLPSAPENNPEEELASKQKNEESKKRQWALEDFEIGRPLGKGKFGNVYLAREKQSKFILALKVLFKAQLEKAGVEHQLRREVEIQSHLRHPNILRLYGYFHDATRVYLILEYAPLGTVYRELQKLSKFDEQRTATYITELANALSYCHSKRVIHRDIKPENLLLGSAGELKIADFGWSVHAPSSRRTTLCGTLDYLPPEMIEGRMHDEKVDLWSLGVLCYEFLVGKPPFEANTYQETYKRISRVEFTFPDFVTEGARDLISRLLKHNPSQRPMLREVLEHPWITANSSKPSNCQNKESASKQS
# Yes = molecular target: T6, Yes (Homo sapiens, UniProt P07947); assay: Z'-Lyte FRET kinase assay (Invitrogen), Yes; settings: read-out: IC50, activity toward kinase Yes
# T6 construct: purchased Invitrogen (Carlsbad, Calif.), screening service
# Description: The effect of potential modulators of kinase activity can be measured in a variety of different assays known in the art. For example, direct radiometric, indirect FRET or AlphaScreen assays may be used to assess the level of phosphorylation of a substrate in the presence of test compounds in order to determine the inhibitory affect of the compound on the kinase. Invitrogen (Carlsbad, Calif.) uses a FRET based assay for Btk, EGFR, EphB2, Flt3, lrak4, Kdr, MAP2K1, MAPKAPK2, PDGFRB, PKC theta, Stk6 and Yes. For these assays, compounds of the invention were screened by Invitrogen using Z′-Lyte™ kinase assay.
# Briefly, the Invitrogen kinase assay involves use of a specific peptide substrate optimized for each kinase, containing a fluorophore at each end that make up the FRET pair. The peptide sensitivity to proteolytic cleavage depends on phosphorylation of the peptide. Non-phosphorylated peptide is cleaved by a protease while peptide phosphorylated by the kinase is not cleaved. Cleavage of the peptide disrupts the FRET between the donor (coumarin) and acceptor (fluorescein) fluorophores, resulting in an increase in the ratio of donor emission to acceptor emission. The emission ratio of coumarin to fluorescein is used to assess the reaction progress. The extent of phosphorylation is determined from the emission ratio, which is low when the kinase is active (phosphorylated peptide is not cleaved, FRET pair connected) or higher for inhibited kinase (non-phosphorylated peptide is cleaved, FRET pair separated). Thus, the assay involves a kinase reaction in the presence of varying concentrations of a given compound, a development reaction with site specific protease, and detection of the fluorescent emission ratio of coumarin and fluorscein. […] Reaction conditions for each kinase are determined to provide optimal reaction times, incubation temperature, kinase and ATP concentrations. Test samples are made up in 1× kinase buffer (50 mM HEPES pH 7.5, 50 mM MgCl2, 5 mM EGTA, 0.05% BRIJ-35) and compound at desired concentration prepared in DMSO such that the final DMSO is 1%. […] Typically, assay plates are prepared to 10 μl final volume per sample, adding 2.5 μl of compound at 4× the desired concentration in 4% DMSO (serial dilution of compound provides concentration curve), 5 μl of the desired kinase mixed with Z′-LYTE™ peptide substrate (2× in 2× kinase buffer, final peptide at 2 μM), and 2.5 μl of 4×ATP solution. All kinase except for MAP2K1 were at 10 μM ATP in the kinase reaction, while MAP2K1 was at 100 μM. Samples are mixed and the kinase reaction is incubated 1 hour at room temperature, after which 5 μl of development solution is added and mixed. After incubation for another 1 hour at room temperature, 5 μl of stop reagent is added to each sample and mixed. The fluorescence signals are measured to determine the emission ratio.
# Kit = molecular target: T7, Kit (Homo sapiens, UniProt P10721); assay: AlphaScreen kinase assay, Kit; settings: read-out: IC50, activity toward kinase Kit
# T7 construct: P1332.N6 BI PTP KIT M552-K948-X COD; His6 (N); made in house; host or cells: E. coli (PTP1B co-expressed)
# Ret = molecular target: T8, Ret (Homo sapiens, UniProt P07949); assay: AlphaScreen kinase assay, Ret; settings: read-out: IC50, activity toward kinase Ret
# T8 construct: P1378.pET-SF BI-PTP RET H661-R1012 HIS; made in house
# T8 sequence (P07949 with tags, fused parts or gaps): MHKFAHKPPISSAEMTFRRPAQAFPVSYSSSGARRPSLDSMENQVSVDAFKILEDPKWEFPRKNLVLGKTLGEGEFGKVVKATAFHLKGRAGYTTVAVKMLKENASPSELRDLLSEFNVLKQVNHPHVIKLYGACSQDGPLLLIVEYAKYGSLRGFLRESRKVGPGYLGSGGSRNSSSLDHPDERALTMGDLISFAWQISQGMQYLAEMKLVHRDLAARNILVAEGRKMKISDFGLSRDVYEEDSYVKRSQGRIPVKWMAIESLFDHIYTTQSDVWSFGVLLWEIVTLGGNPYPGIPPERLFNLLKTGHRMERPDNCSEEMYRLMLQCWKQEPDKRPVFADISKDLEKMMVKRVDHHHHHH
# B-Raf = molecular target: T9, B-Raf (Homo sapiens, UniProt P15056); assay: AlphaScreen kinase assay, B-Raf; settings: read-out: IC50, activity toward kinase B-Raf
# T9 construct: purchased Upstate Biotechnology
# c-Raf-1 = molecular target: T10, c-Raf-1 (Homo sapiens, UniProt P04049); assay: AlphaScreen kinase assay, c-Raf-1; settings: read-out: IC50, activity toward kinase c-Raf-1
# T10 construct: purchased Upstate Biotechnology
# Fak = molecular target: T11, Fak (Homo sapiens, UniProt Q05397); assay: AlphaScreen kinase assay, Fak; settings: read-out: IC50, activity toward kinase Fak
# T11 construct: P1358.pFastBacHtb FAK S411-Q686-X; His6 with pFastBacHTb leader (TEV site) (N); made in house; host or cells: Sf9 (baculovirus)
# Flt1 = molecular target: T12, Flt1 (Homo sapiens, UniProt P17948); assay: AlphaScreen kinase assay, Flt1; settings: read-out: IC50, activity toward kinase Flt1
# T12 construct: P1826.pETN6 BI-PTP FLT1 M799-D1165-X WT; His6 (N); made in house; host or cells: E. coli (PTP1B co-expressed)
# T12 sequence (P17948 with tags, fused parts or gaps): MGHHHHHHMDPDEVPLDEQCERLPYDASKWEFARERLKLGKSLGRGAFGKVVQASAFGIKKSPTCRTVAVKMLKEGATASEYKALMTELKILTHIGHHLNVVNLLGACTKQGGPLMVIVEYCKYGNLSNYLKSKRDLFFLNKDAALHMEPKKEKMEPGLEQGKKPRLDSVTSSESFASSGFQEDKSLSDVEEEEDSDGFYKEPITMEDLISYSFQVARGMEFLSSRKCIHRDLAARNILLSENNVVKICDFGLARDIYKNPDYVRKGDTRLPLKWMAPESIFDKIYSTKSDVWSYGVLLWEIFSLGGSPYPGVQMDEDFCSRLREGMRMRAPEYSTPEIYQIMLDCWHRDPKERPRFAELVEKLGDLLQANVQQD
# Jnk1 = molecular target: T13, Jnk1 (Homo sapiens, UniProt P45983); assay: AlphaScreen kinase assay, Jnk1; settings: read-out: IC50, activity toward kinase Jnk1
# T13 construct: purchased Upstate Biotechnology
# Jnk2 = molecular target: T14, Jnk2 (Homo sapiens, UniProt P45984); assay: AlphaScreen kinase assay, Jnk2; settings: read-out: IC50, activity toward kinase Jnk2
# T14 construct: purchased Roche Protein Expression Group (Indianapolis, IN)
# Summary of the method: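 AlphaScreen, biotin-peptide substrate; streptavidin donor/anti-phospho acceptor beads; decreased emission = inhibition. Cpds 20 mM DMSO stock, 1:3 x 8 conc.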
# Pyk2 = molecular target: T15, Pyk2 (Homo sapiens, UniProt Q14289); assay: AlphaScreen kinase assay, Pyk2; settings: read-out: IC50, activity toward kinase Pyk2
# T15 construct: purchased Upstate Biotechnology
# Jnk3 = molecular target: T16, Jnk3 (Homo sapiens, UniProt P53779); assay: AlphaScreen kinase assay, Jnk3; settings: read-out: IC50, activity toward kinase Jnk3
# T16 construct: purchased Upstate Biotechnology
# Src = molecular target: T17, Src (Homo sapiens, UniProt P12931); assay: AlphaScreen kinase assay, Src; settings: read-out: IC50, activity toward kinase Src
# T17 construct: P1144. pET-N6 BI-PTP SRC V86-L536-X; made in house
# T13 sequence (P45983 whole entry): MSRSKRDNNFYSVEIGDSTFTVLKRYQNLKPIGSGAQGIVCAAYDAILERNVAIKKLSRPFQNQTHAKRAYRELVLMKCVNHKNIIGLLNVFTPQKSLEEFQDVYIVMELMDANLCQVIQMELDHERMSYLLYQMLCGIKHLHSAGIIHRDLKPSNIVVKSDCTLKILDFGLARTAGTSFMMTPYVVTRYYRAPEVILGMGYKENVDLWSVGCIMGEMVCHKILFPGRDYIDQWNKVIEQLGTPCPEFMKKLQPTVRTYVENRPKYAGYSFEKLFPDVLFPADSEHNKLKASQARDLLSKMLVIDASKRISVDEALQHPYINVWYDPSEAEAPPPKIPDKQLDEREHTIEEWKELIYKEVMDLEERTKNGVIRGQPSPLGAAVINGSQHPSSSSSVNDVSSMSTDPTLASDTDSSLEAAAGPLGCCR
# T9 sequence (P15056 whole entry): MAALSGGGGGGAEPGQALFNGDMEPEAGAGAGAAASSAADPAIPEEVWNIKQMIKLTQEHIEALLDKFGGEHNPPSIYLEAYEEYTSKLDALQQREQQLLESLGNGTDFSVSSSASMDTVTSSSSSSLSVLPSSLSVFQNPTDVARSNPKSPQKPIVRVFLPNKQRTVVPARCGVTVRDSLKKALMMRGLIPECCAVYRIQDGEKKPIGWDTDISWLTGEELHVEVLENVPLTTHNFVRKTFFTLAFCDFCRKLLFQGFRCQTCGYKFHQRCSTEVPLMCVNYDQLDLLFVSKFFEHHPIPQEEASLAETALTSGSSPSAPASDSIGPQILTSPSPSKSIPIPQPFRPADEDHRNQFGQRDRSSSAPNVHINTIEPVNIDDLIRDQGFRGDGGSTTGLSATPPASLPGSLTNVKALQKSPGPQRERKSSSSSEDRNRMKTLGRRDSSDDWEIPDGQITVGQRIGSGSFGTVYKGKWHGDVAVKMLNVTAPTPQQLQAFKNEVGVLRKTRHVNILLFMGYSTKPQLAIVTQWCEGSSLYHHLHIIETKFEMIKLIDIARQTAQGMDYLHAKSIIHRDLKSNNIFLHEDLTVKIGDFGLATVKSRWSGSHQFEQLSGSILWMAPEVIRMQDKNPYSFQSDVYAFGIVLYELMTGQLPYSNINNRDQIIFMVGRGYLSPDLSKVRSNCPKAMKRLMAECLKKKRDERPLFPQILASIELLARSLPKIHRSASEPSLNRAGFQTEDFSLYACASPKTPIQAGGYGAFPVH
# T7 sequence (P10721 with tags, fused parts or gaps): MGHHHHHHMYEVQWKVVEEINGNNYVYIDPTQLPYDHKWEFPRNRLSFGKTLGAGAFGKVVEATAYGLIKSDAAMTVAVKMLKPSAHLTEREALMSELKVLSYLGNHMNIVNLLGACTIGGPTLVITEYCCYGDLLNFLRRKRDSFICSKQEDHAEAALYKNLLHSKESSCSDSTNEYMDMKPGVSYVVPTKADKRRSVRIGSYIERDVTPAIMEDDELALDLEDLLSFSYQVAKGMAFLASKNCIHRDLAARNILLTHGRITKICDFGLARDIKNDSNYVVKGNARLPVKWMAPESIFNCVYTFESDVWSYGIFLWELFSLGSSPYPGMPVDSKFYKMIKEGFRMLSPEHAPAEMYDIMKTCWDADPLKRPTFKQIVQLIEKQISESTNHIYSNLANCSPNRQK
# T4 sequence (P35968 20-1356): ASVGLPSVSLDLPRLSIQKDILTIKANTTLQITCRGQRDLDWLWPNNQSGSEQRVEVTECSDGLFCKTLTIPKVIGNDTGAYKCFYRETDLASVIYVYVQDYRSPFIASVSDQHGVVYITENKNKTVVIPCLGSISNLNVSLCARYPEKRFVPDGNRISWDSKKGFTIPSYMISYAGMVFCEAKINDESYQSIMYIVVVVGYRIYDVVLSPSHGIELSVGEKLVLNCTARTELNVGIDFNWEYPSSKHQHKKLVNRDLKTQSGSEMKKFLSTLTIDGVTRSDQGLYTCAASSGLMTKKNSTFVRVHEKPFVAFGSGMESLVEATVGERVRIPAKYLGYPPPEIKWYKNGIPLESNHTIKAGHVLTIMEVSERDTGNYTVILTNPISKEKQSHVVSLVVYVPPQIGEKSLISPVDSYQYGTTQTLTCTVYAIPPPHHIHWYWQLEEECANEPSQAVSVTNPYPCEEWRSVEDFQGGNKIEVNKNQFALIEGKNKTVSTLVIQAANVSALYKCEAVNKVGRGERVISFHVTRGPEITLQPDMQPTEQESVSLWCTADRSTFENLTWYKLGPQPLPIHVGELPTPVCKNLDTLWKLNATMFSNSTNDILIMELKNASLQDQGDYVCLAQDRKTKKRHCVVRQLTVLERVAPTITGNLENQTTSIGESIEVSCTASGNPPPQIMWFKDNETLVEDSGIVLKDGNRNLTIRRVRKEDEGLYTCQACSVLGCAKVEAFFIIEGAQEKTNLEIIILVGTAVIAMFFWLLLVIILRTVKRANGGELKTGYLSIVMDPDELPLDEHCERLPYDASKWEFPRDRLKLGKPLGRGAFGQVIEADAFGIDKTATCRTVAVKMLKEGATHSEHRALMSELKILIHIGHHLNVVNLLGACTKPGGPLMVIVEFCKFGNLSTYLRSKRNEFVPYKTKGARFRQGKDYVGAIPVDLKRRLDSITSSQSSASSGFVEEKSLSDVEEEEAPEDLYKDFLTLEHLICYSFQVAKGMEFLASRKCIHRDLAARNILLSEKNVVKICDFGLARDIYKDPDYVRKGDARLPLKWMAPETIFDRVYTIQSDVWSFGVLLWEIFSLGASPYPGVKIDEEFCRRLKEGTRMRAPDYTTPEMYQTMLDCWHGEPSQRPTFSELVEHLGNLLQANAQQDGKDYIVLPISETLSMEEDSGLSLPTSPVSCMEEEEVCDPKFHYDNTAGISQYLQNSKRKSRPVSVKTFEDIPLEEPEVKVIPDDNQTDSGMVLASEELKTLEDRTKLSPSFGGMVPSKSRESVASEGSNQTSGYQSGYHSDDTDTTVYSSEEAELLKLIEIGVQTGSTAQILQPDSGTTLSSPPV
# T15 sequence (Q14289 whole entry): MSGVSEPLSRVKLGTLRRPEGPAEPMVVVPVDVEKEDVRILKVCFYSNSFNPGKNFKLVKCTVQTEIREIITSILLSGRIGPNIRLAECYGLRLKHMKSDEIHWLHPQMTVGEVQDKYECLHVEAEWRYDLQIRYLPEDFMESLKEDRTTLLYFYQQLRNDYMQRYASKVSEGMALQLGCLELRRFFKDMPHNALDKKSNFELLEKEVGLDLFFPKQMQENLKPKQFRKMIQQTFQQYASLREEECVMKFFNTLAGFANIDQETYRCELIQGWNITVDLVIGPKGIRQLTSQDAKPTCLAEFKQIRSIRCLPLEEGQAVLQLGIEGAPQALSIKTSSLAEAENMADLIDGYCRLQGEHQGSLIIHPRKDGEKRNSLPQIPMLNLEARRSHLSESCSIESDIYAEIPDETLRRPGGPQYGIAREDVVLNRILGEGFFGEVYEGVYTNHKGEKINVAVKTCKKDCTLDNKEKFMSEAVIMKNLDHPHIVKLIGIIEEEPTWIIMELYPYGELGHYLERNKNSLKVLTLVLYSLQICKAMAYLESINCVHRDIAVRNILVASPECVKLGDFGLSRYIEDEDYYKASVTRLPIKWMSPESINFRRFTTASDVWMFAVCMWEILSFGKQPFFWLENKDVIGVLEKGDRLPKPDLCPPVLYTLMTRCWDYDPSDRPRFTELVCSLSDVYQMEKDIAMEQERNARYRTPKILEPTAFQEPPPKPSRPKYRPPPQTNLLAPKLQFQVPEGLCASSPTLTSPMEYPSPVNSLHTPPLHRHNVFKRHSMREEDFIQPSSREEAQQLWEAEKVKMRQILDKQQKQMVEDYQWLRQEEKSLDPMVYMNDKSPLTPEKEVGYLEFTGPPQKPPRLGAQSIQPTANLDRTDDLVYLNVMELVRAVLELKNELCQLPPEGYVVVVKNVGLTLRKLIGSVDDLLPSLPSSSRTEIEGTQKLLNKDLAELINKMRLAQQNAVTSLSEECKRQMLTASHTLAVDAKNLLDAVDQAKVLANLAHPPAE
# T3 sequence (P07333 20-972): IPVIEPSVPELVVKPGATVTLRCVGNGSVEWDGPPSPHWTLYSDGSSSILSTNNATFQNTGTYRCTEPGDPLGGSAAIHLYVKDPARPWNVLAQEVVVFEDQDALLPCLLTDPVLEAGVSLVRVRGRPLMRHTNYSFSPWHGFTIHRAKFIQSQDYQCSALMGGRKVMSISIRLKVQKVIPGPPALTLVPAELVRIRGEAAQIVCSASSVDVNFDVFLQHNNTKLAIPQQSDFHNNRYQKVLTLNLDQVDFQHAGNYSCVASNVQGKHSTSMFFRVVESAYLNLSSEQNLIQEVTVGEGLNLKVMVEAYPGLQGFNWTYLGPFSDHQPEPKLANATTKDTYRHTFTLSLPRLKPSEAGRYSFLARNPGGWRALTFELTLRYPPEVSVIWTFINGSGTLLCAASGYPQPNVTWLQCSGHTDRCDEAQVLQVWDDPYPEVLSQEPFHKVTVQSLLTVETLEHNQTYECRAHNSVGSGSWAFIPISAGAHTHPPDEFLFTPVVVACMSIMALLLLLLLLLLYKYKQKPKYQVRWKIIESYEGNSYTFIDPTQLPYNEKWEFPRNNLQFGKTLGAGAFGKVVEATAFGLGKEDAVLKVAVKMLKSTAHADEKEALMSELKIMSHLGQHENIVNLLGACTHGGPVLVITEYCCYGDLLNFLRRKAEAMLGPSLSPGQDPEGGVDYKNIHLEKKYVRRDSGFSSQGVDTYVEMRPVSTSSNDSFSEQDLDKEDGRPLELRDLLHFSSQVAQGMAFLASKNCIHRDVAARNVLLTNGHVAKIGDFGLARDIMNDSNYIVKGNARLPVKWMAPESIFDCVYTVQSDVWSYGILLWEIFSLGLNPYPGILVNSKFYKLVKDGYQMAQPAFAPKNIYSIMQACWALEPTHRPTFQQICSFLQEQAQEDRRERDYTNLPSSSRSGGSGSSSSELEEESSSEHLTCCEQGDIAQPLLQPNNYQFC
SMILES,IC50 (B-Raf V600E) [µM],IC50 (FGFR1) [µM],IC50 (Fms) [µM],IC50 (Kdr) [µM],IC50 (Yes) [µM],IC50 (Kit) [µM],IC50 (B-Raf) [µM],IC50 (Fak) [µM],IC50 (Pyk2) [µM],IC50 (Src) [µM],also measured
c1csc(CNc2ccc(Cc3c[nH]c4ncccc34)cn2)c1 [Compound P-0129],≤ 10,≤ 10,≤ 10,≤ 10,≤ 10,,,,,,IC50 (Stk6): ≤ 10 µM
O=C(c1cccc(O)c1)c1c[nH]c2ncc(-c3ccccc3)cc12 [Compound P-0230],,,,≤ 10,≤ 10,,,,,,
COc1ccc(F)c(C(=O)c2c[nH]c3nccc(Cl)c23)c1 [Compound P-0175],≤ 10,≤ 10,≤ 10,≤ 10,≤ 10,≤ 10,,,,,IC50 (Ret): ≤ 10 µM
"COC(=O)Nc1ccc(F)c(C(=O)c2c[nH]c3ncc(-c4cccnc4)cc23)c1F [Compound P-0486, [2,4-Difluoro-3-(5-pyridin-3-yl-1H-pyrrolo[2,3-b]pyridine-3-carbonyl)-phenyl]-carbamic acid methyl ester]",≤ 10,≤ 10,≤ 10,,,,≤ 10,≤ 10,≤ 10,,IC50 (c-Raf-1): ≤ 10 µM; IC50 (Flt1): ≤ 10 µM; IC50 (Jnk1): ≤ 10 µM; IC50 (Jnk2): ≤ 10 µM; IC50 (Ret): ≤ 10 µM
O=C(c1ccc(NCc2ccccc2)nc1)c1c[nH]c2ncccc12 [Compound P-0483],≤ 10,≤ 10,≤ 10,,≤ 10,,,,,≤ 10,IC50 (Flt1): ≤ 10 µM; IC50 (Jnk3): ≤ 10 µM
Nc1cccc(-c2cnc3[nH]cc(Cc4ccccc4F)c3c2)c1 [Compound P-1349],≤ 10,≤ 10,,,,≤ 10,≤ 10,≤ 10,≤ 10,≤ 10,IC50 (Jnk1): ≤ 10 µM; IC50 (Jnk3): ≤ 10 µM
"O=C(Nc1ccc(F)c(Cc2c[nH]c3ncc(-c4cccnc4)cc23)c1F)OCc1ccccc1 [Compound P-0396, [2,4-Difluoro-3-(5-pyridin-3-yl-1H-pyrrolo[2,3-b]pyridin-3-ylmethyl)-phenyl]-carbamic acid benzyl ester]",≤ 10,≤ 10,≤ 10,,,≤ 10,≤ 10,≤ 10,≤ 10,≤ 10,IC50 (c-Raf-1): ≤ 10 µM; IC50 (Ret): ≤ 10 µM
CCCC(=O)Nc1ccc(F)c(Cc2c[nH]c3ncc(-c4cccc(C(N)=O)c4)cc23)c1F [Compound P-1281],≤ 10,≤ 10,≤ 10,,,≤ 10,≤ 10,≤ 10,≤ 10,≤ 10,IC50 (Jnk1): ≤ 10 µM
COc1ccc(-c2cnc3[nH]cc(C#Cc4ccccc4)c3c2)cc1OC [Compound P-0153],≤ 10,,,,≤ 10,,,,,,IC50 (Stk6): ≤ 10 µM

# More lines, main results first:
IC50 (B-Raf V600E) [µM],IC50 (FGFR1) [µM],IC50 (Fms) [µM],IC50 (Kdr) [µM],IC50 (Yes) [µM],IC50 (Kit) [µM],IC50 (B-Raf) [µM],IC50 (Fak) [µM],IC50 (Pyk2) [µM],IC50 (Src) [µM],SMILES,also measured
,,,≤ 10,≤ 10,,,,,,COc1cccc(C(O)c2c[nH]c3ncc(-c4cccs4)cc23)c1 (centres unmarked) [Compound P-0161],
≤ 10,≤ 10,,,≤ 10,,≤ 10,,,,CC(=O)Oc1cccc(C(=O)c2c[nH]c3ncc(Br)cc23)c1C [Compound P-0271],
,,≤ 10,,≤ 10,,,,,,O=C(c1ccc(NCc2cccc(F)c2)nc1)c1c[nH]c2ncccc12 [Compound P-0327],
,,,,≤ 10,,,,,,C(=C\c1c[nH]c2ncccc12)/c1ccc(NCc2ccccc2)cc1 [Compound P-0283],IC50 (Stk6): ≤ 10 µM
